{"source": "patent US20250213701A1", "about": "“MEDICAMENT FOR TREATING HUMAN TUMOR BASED ON ERF3A-TARGETING PROTEOLYSIS MECHANISM” (SUZHOU DEGEN BIO-MEDICAL CO., LTD., priority 2022, published 2025)", "type_in_all_cases": "cell-based", "key": {"GSPT1 (eRF3a)": {"target": "T1, GSPT1 (eRF3a) (Homo sapiens, UniProt P15170+Q96SW2)", "T1 construct": "The downregulation of SRD5A3 and GSPT1 (eRF3a) proteins in PC-3 and HepG2 cells by C59; endogenous in cells; host or cells: 22Rv1, PC-3, HepG2", "T1 sequence (P15170 1-637 isoform P15170-3)": "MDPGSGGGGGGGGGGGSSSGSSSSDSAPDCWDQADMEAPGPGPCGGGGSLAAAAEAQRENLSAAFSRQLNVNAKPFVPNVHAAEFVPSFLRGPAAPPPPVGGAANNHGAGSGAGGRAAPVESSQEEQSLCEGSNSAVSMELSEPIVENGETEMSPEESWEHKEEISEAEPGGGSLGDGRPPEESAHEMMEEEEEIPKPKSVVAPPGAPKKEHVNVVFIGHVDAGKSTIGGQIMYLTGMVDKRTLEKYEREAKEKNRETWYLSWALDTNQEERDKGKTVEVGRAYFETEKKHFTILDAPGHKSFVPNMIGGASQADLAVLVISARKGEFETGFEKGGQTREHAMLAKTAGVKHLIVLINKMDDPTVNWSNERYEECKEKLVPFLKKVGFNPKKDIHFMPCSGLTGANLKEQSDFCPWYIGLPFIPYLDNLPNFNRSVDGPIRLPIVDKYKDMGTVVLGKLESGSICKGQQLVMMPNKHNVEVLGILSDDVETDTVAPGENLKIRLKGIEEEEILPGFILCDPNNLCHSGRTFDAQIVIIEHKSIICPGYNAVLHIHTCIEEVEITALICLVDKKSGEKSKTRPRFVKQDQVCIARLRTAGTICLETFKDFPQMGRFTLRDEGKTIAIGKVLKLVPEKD", "T1 sequence (Q96SW2 whole entry)": "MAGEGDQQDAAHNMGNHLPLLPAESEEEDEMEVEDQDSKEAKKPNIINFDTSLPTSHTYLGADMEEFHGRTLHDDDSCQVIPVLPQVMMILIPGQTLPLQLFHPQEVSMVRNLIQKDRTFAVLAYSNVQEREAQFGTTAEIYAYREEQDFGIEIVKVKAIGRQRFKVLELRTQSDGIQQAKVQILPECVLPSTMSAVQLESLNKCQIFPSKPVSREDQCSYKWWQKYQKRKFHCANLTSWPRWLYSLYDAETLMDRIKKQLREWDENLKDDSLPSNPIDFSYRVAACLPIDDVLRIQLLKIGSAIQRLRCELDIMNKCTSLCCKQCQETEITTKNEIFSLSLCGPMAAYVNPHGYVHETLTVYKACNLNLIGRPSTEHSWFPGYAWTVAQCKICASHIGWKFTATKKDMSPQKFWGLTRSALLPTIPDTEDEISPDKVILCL", "T1 sequence (Q16531 whole entry partner)": "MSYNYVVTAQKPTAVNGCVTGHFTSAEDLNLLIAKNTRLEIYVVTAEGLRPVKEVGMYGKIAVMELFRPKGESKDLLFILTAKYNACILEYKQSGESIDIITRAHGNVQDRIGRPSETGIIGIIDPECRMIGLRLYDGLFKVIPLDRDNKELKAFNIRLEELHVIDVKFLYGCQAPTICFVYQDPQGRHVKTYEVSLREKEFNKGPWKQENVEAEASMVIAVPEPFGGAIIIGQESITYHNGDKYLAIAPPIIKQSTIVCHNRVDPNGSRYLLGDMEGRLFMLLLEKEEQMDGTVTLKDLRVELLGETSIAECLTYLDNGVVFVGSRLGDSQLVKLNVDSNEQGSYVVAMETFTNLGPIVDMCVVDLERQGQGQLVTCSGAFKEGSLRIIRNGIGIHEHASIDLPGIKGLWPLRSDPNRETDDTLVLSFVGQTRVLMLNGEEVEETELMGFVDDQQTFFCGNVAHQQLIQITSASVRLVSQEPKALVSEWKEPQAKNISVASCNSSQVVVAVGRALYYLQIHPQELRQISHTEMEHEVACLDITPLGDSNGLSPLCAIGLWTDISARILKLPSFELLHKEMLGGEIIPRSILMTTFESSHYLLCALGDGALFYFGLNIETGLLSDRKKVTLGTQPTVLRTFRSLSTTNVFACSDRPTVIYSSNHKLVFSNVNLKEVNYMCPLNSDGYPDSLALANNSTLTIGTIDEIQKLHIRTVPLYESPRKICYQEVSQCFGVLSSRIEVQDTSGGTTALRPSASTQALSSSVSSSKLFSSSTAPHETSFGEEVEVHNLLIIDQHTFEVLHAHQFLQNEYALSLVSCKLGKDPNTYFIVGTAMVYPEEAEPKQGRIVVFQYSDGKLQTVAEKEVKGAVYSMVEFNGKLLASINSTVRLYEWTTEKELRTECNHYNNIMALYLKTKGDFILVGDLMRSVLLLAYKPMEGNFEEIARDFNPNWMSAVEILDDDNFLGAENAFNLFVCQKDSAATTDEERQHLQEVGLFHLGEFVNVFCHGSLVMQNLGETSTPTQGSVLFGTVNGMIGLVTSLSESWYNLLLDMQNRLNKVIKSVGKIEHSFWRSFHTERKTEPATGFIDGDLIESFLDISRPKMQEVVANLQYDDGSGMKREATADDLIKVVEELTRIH", "test": "Western blot assay in PC-3 cells: GSPT1 (eRF3a)", "details": "different concentrations at 24 h (FIG. 9)", "source_text": "Example 84: Western Blot Assay of Compound C59 in 22Rv1, PC-3, and HepG2 Cells\n(1) Materials: 22Rv1, PC-3, and HepG2 cell, anti-SRD5A1 antibody (ab167606), anti-SRD5A2 antibody (ab124877), anti-SRD5A3 antibody (PA5-107029), anti-androgen receptor (AR) antibody (CST, No. 5153), anti-GSPT1 antibody (Abcam, ab234433), anti-GADPH antibody (CST, No. 5174), anti-c-Myc antibody (CST, No. 8583), anti-α-tublin antibody (CST, No. 2125), anti-rabbit IgG, HRP-linked antibody (CST, No. 7074), electrophoresis device and membrane transfer device (LIUYI, BEIJING; DYCZ-24DN)\nCell seeding: 22Rv1 (Cell Bank of the Chinese Academy of Sciences, TCHu100), PC-3 (Cell Bank of the Chinese Academy of Sciences, SCSP-532) and HepG2 cells (Cell Bank of the Chinese Academy of Sciences, TCHu72) were subcultured and trypsinized to prepare 6×10^5 cells/mL suspensions, seeded on 6-well plates (3 mL/well), and cultured overnight in a cell incubator at 5% CO2 and 37° C. […]\nProtein quantification: The protein was quantified using a BCA protein quantification kit. […]\nWestern immunoblot assay (or Western blot, WB): SDS-PAGE gel at a proper concentration was prepared according to the molecular weight of the target protein: for example, the concentration of the separation gel was 8% and the concentration of the stacking gel was 5%. The loading volume was adjusted according to the protein quantification results. […]"}, "DU 145 cells": {"tested_on": "DU 145 cells", "test": "Anti-proliferative toxicity of C63 in tumor cell lines (CCK8): DU 145", "details": "Homo sapiens, 72 h, 3 days, read-out: Inhibition rate", "description": "(§1) Example 83: Detection of Anti-Proliferative Toxicity of C63 in Some Tumor Cell Lines\nDU 145 cells (purchased from the Cell Bank of the Chinese Academy of Sciences, Cat. No. SCSP-5024) were subcultured in a culture medium (MVEM medium+[…] penicillin-streptomycin dual-antibiotic solution+10% fetal bovine serum) in an incubator at 5% carbon dioxide and 37° C.\nDU 145 cells were seeded at 5000 cells/well (90 μL) on a 96-well plate and cultured for 24 h.\n(§2) 10 mM compound stock solutions were prepared in DMSO.\n(§3) The compound stock solution was diluted with DMSO to give DMSO solutions 1-9 at concentrations of 0 μM, 2500 μM, 500 μM, 100 μM, 20 μM, 4 μM, 0.8 μM, 0.16 μM, and 0.032 μM.\n(§4) 2 μL of each of solutions 1-9 was added to 98 μL of the medium to give mixed solutions 11-19 of the compound and the medium.\n(§5) 10 μL of each of solutions 11-19 was added to the above cell seed solution to give a total volume of 100 μL (90 μL+10 μL).\n(§6) The concentrations of the compound in the wells were 0 μM, 5.0 μM, 1.0 μM, 0.2 μM, 0.04 μM, 0.008 μM, 0.0016 μM, 0.00032 μM, and 0.000064 μM. All concentrations were in triplicate.\n(§7) After the above-treated cells were cultured for 3 days, 10 μL of the CCK8 solution (DOJINDO, Cat. No. PF725) was added to each well. The plate was incubated in an incubator at 37° C. for 1-4 h and then detected on a microplate reader for the reading at 450 nm."}, "PANC-1 cells": {"tested_on": "PANC-1 cells", "test": "Anti-proliferative toxicity of C63 in tumor cell lines (CCK8): PANC-1", "details": "Homo sapiens, 72 h, 3 days, read-out: Inhibition rate", "description": "as §1\nPANC-1 cells (purchased from the Cell Bank of the Chinese Academy of Sciences, Cat. No. SCSP-535) were subcultured in a culture medium (DMEM medium+1% penicillin-streptomycin dual-antibiotic solution+10% fetal bovine serum) in an incubator at 5% carbon dioxide and 37° C.\nPANC-1 cells were seeded at 5000 cells/well (90 μL) on a 96-well plate and cultured for 24 h.\nas §2, §3, §4, §5, §6, §7"}, "SNU-1 cells": {"tested_on": "SNU-1 cells", "test": "Anti-proliferative toxicity of C63 in tumor cell lines (CCK8): SNU-1", "details": "Homo sapiens, SNU1, 72 h, 3 days, read-out: Inhibition rate", "description": "as §1\nSNU-1 cells (purchased from the Cell Bank of the Chinese Academy of Sciences, Cat. No. TCHu230) were subcultured in a culture medium (RPMI-1640 medium+1% penicillin-streptomycin dual-antibiotic solution+10% fetal bovine serum) in an incubator at 5% carbon dioxide and 37° C.\nSNU-1 cells were seeded at 5000 cells/well (90 μL) on a 96-well plate and cultured for 24 h.\nas §2, §3, §4, §5, §6, §7"}}, "data": [{"smiles": "C[C@]12C=CC(=O)N[C@@H]1CC[C@@H]1[C@@H]2CC[C@]2(C)[C@@H](C(=O)Nc3cccc(N[C@@H]4CCC[C@@H](Nc5cccc6c5C(=O)N(C5CCC(=O)NC5=O)C6=O)C4)c3)CC[C@@H]12", "note": "(stereo partly drawn) [C59, N-(3-(N—(N-(4-(2-(3-(2,6-dioxopiperidine))-isoindole-1,3-dione))-1R,3R-cyclohexanediamine))phenyl)-3-oxo-4-aza-5α-androst-1-ene-17β-carboxamide]", "values": [{"measurement": "downregulation of GSPT1 (eRF3a) protein (Western blot)", "setting": "GSPT1 (eRF3a)", "value": "downregulation"}]}, {"smiles": "C[C@]12C=CC(=O)N[C@@H]1CC[C@@H]1[C@@H]2CC[C@]2(C)[C@@H](C(=O)Nc3cccc(N[C@@H]4CCC[C@@H](Nc5cccc6c5C(=O)N([C@H]5CCC(=O)NC5=O)C6=O)C4)c3)CC[C@@H]12", "note": "[C63, N-(3-(N—(N-(4-(2-(3S-(2,6-dioxopiperidine))-isoindole-1,3-dione))-1R,3R-cyclohexanediamine))phenyl)-3-oxo-4-aza-5α-androst-1-ene-17β-carboxamide]", "values": [{"measurement": "inhibition at 64 pM", "setting": "DU 145 cells; 0.000064 μM", "value": 22.1, "unit": "%"}, {"measurement": "inhibition at 0.00032 µM", "setting": "DU 145 cells; 0.000320 μM", "value": 20.5, "unit": "%"}, {"measurement": "inhibition at 0.0016 µM", "setting": "DU 145 cells; 0.001600 μM", "value": 22.7, "unit": "%"}, {"measurement": "inhibition at 0.008 µM", "setting": "DU 145 cells; 0.008000 μM", "value": 48.4, "unit": "%"}, {"measurement": "inhibition at 0.04 µM", "setting": "DU 145 cells; 0.040000 μM", "value": 60.9, "unit": "%"}, {"measurement": "inhibition at 0.2 µM", "setting": "DU 145 cells; 0.200000 μM", "value": 74.3, "unit": "%"}, {"measurement": "inhibition at 1 µM", "setting": "DU 145 cells; 1.000000 μM", "value": 81.9, "unit": "%"}, {"measurement": "inhibition at 5 µM", "setting": "DU 145 cells; 5.000000 μM", "value": 82.4, "unit": "%"}, {"measurement": "inhibition at 64 pM", "setting": "PANC-1 cells; 0.000064 μM", "value": 21.2, "unit": "%"}, {"measurement": "inhibition at 0.00032 µM", "setting": "PANC-1 cells; 0.000320 μM", "value": 12.8, "unit": "%"}, {"measurement": "inhibition at 0.0016 µM", "setting": "PANC-1 cells; 0.001600 μM", "value": 25.3, "unit": "%"}, {"measurement": "inhibition at 0.008 µM", "setting": "PANC-1 cells; 0.008000 μM", "value": 31.6, "unit": "%"}, {"measurement": "inhibition at 0.04 µM", "setting": "PANC-1 cells; 0.040000 μM", "value": 36.3, "unit": "%"}, {"measurement": "inhibition at 0.2 µM", "setting": "PANC-1 cells; 0.200000 μM", "value": 42.1, "unit": "%"}, {"measurement": "inhibition at 1 µM", "setting": "PANC-1 cells; 1.000000 μM", "value": 48.7, "unit": "%"}, {"measurement": "inhibition at 5 µM", "setting": "PANC-1 cells; 5.000000 μM", "value": 52.8, "unit": "%"}, {"measurement": "inhibition at 64 pM", "setting": "SNU-1 cells; 0.000064 μM", "value": 10.2, "unit": "%"}, {"measurement": "inhibition at 0.00032 µM", "setting": "SNU-1 cells; 0.000320 μM", "value": 28.9, "unit": "%"}, {"measurement": "inhibition at 0.0016 µM", "setting": "SNU-1 cells; 0.001600 μM", "value": 65.1, "unit": "%"}, {"measurement": "inhibition at 0.008 µM", "setting": "SNU-1 cells; 0.008000 μM", "value": 75.2, "unit": "%"}, {"measurement": "inhibition at 0.04 µM", "setting": "SNU-1 cells; 0.040000 μM", "value": 82.7, "unit": "%"}, {"measurement": "inhibition at 0.2 µM", "setting": "SNU-1 cells; 0.200000 μM", "value": 82, "unit": "%"}, {"measurement": "inhibition at 1 µM", "setting": "SNU-1 cells; 1.000000 μM", "value": 80.9, "unit": "%"}, {"measurement": "inhibition at 5 µM", "setting": "SNU-1 cells; 5.000000 μM", "value": 79.9, "unit": "%"}]}]}
